From ChEMBL document CHEMBL1201862, “PubChem BioAssay data set” (2004)
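In this assay, cells in 96-well plates receive the compound at five concentrations for 48 hours. Endpoints are linearly interpolated between the surrounding concentrations. GI50: concentration for 50% inhibition of growth.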 The source made the active and inactive calls. No stated cut-off is given here; in the data, active = GI50 up to about 1.1 µM and inactive = higher.

Experiments:
Experiment in all cases: DTP human tumour cell line panel, 48 h
[1] = tested on: KM12
[2] = tested on: NCI-H522
[3] = tested on: SR
[4] = tested on: Malme-3M
[5] = tested on: HT-29
[6] = tested on: HL-60
[7] = tested on: K562
[8] = tested on: SK-OV-3
[9] = tested on: SF-295
[10] = tested on: 786-0
[11] = tested on: HCT-15
[12] = tested on: NCI-H460
[13] = tested on: NCI-H226
[14] = tested on: SW-620
[15] = tested on: U-251
[16] = tested on: OVCAR-4
[17] = tested on: CCRF-CEM
[18] = tested on: MDA-N
[19] = tested on: Hs-578T
[20] = tested on: BT-549

| SMILES | GI50 [1] | GI50 [2] | GI50 [3] | GI50 [4] | GI50 [5] | GI50 [6] | GI50 [7] | GI50 [8] | GI50 [9] | GI50 [10] | GI50 [11] [µM] | GI50 [12] | GI50 [13] | GI50 [14] | GI50 [15] | GI50 [16] | GI50 [17] | GI50 [18] | GI50 [19] | GI50 [20] |
| --- | --- | --- | --- | --- | --- | --- | --- | --- | --- | --- | --- | --- | --- | --- | --- | --- | --- | --- | --- | --- |
| CC[n+]1cnc(N)c2c(-c3ccc(Cl)cc3)cn(-c3ccc(C)cc3)c21 | 15.8 µM (inactive) | 15.5 µM (inactive) | 4.6 µM (inactive) | 12.3 µM (inactive) | 4.36 µM (inactive) | 24.8 µM (inactive) | 5.33 µM (inactive) | 15.4 µM (inactive) | 12.7 µM (inactive) | 11.4 µM (inactive) | 14.9 | 15.7 µM (inactive) | 13.2 µM (inactive) | 15.3 µM (inactive) | 11.9 µM (inactive) | 2.77 µM (inactive) | 6.89 µM (inactive) | 12.5 µM (inactive) |  |  |
| CC1(C)N=C(/C(C#N)=[N+](/[O-])C(=O)c2ccccc2)C(C)(C)N1O | > 100 µM (inactive) |  | > 100 µM (inactive) | > 100 µM (inactive) | > 100 µM (inactive) | > 100 µM (inactive) | > 100 µM (inactive) | > 100 µM (inactive) | > 100 µM (inactive) | > 100 µM (inactive) | > 100 | > 100 µM (inactive) | > 100 µM (inactive) | > 100 µM (inactive) | > 100 µM (inactive) | > 100 µM (inactive) | > 100 µM (inactive) | > 100 µM (inactive) | > 100 µM (inactive) |  |
| Nc1nc(Cl)cc(NC23CC4CC(CC(C4)C2)C3)n1 | > 100 µM (inactive) | 31 µM (inactive) | > 100 µM (inactive) | 44.1 µM (inactive) |  |  | > 100 µM (inactive) | > 100 µM (inactive) | 85.5 µM (inactive) | > 100 µM (inactive) | 40.6 | > 100 µM (inactive) | 76.2 µM (inactive) | > 100 µM (inactive) | 32 µM (inactive) | > 100 µM (inactive) | > 100 µM (inactive) | > 100 µM (inactive) |  | 61.7 µM (inactive) |
| CC[C@@]1(O)C(=O)OCc2c1cc1n(c2=O)Cc2cc3cc(OC)ccc3nc2-1 | 0.139 µM (active) | 0.0246 µM (active) | 0.00667 µM (active) | 0.255 µM (active) | 0.0268 µM (active) | 0.018 µM (active) | 0.123 µM (active) | 0.0498 µM (active) | 0.008 µM (active) | 0.00923 µM (active) | 0.116 | 0.00607 µM (active) | 0.016 µM (active) | 0.0248 µM (active) | 0.00407 µM (active) | 0.00845 µM (active) | 0.00457 µM (active) | 0.142 µM (active) |  | 0.0308 µM (active) |
| Nc1cccc(S(=O)(=O)Nc2nnc(S(N)(=O)=O)s2)c1 | > 100 µM (inactive) | > 100 µM (inactive) | > 100 µM (inactive) | > 100 µM (inactive) | > 100 µM (inactive) | > 100 µM (inactive) | > 100 µM (inactive) | > 100 µM (inactive) | > 100 µM (inactive) | > 100 µM (inactive) | > 100 | > 100 µM (inactive) | > 100 µM (inactive) | > 100 µM (inactive) | > 100 µM (inactive) | > 100 µM (inactive) |  |  |  | > 100 µM (inactive) |
| CC(=O)OCC(=O)OC[C@H](OCc1ccccc1)[C@@H]1[C@H](OC(C)=O)C(=O)N1Cc1ccccc1 | > 100 µM (inactive) |  | > 100 µM (inactive) | > 100 µM (inactive) | > 100 µM (inactive) |  | > 100 µM (inactive) | > 100 µM (inactive) | > 100 µM (inactive) | > 100 µM (inactive) | > 100 |  | > 100 µM (inactive) | > 100 µM (inactive) | > 100 µM (inactive) | > 100 µM (inactive) | > 100 µM (inactive) | > 100 µM (inactive) | > 100 µM (inactive) |  |
| COc1cc(OC)nc(Nc2c(C#N)c3nc4ccccc4n3c3ccccc23)n1 | 45.9 µM (inactive) | 19.2 µM (inactive) |  |  | > 100 µM (inactive) | > 100 µM (inactive) | > 100 µM (inactive) | 51.6 µM (inactive) | 21.6 µM (inactive) | 16.5 µM (inactive) | > 100 | 43 µM (inactive) | 39.4 µM (inactive) | > 100 µM (inactive) | 31.3 µM (inactive) | 22.3 µM (inactive) | > 100 µM (inactive) | > 100 µM (inactive) | 47.6 µM (inactive) | 15.8 µM (inactive) |
| O=c1[nH]nc(Cc2ccccc2)n1CCO | > 100 µM (inactive) | > 100 µM (inactive) |  | > 100 µM (inactive) | > 100 µM (inactive) |  | > 100 µM (inactive) | > 100 µM (inactive) | > 100 µM (inactive) | > 100 µM (inactive) | > 100 | > 100 µM (inactive) | > 100 µM (inactive) | > 100 µM (inactive) | > 100 µM (inactive) | > 100 µM (inactive) |  | > 100 µM (inactive) | > 100 µM (inactive) | > 100 µM (inactive) |
| Oc1ccccc1/C=N/c1ccc(Oc2ccc(Cl)cc2)c(Cl)c1 | 23.8 µM (inactive) | 14.4 µM (inactive) | 38.2 µM (inactive) | 19.5 µM (inactive) | 19.5 µM (inactive) | 17.9 µM (inactive) |  | 29.8 µM (inactive) | 18.7 µM (inactive) | 26 µM (inactive) | 16.3 | 18.6 µM (inactive) | 25.2 µM (inactive) | 28.9 µM (inactive) | 21.2 µM (inactive) | 22.4 µM (inactive) | 12.4 µM (inactive) |  | 19.7 µM (inactive) | 15.8 µM (inactive) |
| COP(=O)(CP(=O)(OC)OCCC(C)CCC=C(C)C)OC (stereo not given) | > 100 µM (inactive) | > 100 µM (inactive) |  | > 100 µM (inactive) |  |  | > 100 µM (inactive) | > 100 µM (inactive) | > 100 µM (inactive) | > 100 µM (inactive) | > 100 | > 100 µM (inactive) | > 100 µM (inactive) | > 100 µM (inactive) | 26.7 µM (inactive) | > 100 µM (inactive) | > 100 µM (inactive) | > 100 µM (inactive) |  | > 100 µM (inactive) |
| O=C1CC(c2cccc(Cl)c2)Oc2ccccc21 (stereo not given) | 15.7 µM (inactive) |  |  |  | 17.5 µM (inactive) | 11.1 µM (inactive) | 2.9 µM (inactive) | 20.9 µM (inactive) | 19.4 µM (inactive) | 16.7 µM (inactive) | 15.9 | 18.4 µM (inactive) | 21.4 µM (inactive) | 18.3 µM (inactive) | 25.5 µM (inactive) | 22.4 µM (inactive) | 10.1 µM (inactive) |  | 23.6 µM (inactive) |  |
| COc1ccc(NC(=S)Nc2c(C)n(C)n(-c3ccccc3)c2=O)cc1 | > 100 µM (inactive) | > 100 µM (inactive) |  | > 100 µM (inactive) | > 100 µM (inactive) | > 100 µM (inactive) | > 100 µM (inactive) | > 100 µM (inactive) | > 100 µM (inactive) | > 100 µM (inactive) | > 100 | > 100 µM (inactive) | > 100 µM (inactive) | > 100 µM (inactive) | > 100 µM (inactive) |  | > 100 µM (inactive) | > 100 µM (inactive) | > 100 µM (inactive) | > 100 µM (inactive) |
| Cc1[nH]c(=O)nc(NCCNCCO)c1C(=O)Nc1c2ccccc2nc2ccccc12 | > 100 µM (inactive) | > 100 µM (inactive) |  | > 100 µM (inactive) | > 100 µM (inactive) | > 100 µM (inactive) | > 100 µM (inactive) | > 100 µM (inactive) | > 100 µM (inactive) | > 100 µM (inactive) | > 100 |  | > 100 µM (inactive) | > 100 µM (inactive) | > 100 µM (inactive) | > 100 µM (inactive) | > 100 µM (inactive) | > 100 µM (inactive) |  |  |
| C[C@@H](C1CC[C@H]2[C@@H]3[C@@H]4O[C@@H]4[C@@]4(O)CC=CC(=O)[C@]4(C)[C@H]3C[C@H](O)[C@]12C)[C@H]1C[C@]2(C)O[C@]2(C)C(=O)O1 (stereo not given in full) | > 100 µM (inactive) | > 100 µM (inactive) |  | > 100 µM (inactive) | > 100 µM (inactive) | > 100 µM (inactive) | > 100 µM (inactive) | > 100 µM (inactive) | > 100 µM (inactive) | > 100 µM (inactive) | > 100 | > 100 µM (inactive) | > 100 µM (inactive) | > 100 µM (inactive) | > 100 µM (inactive) | > 100 µM (inactive) | 56.6 µM (inactive) | > 100 µM (inactive) | > 100 µM (inactive) |  |
| Cc1ccc(SCC(CSCCO)OCn2cnc3c2N=C(N)NC32OCCO2)cc1 (stereo not given) |  | > 100 µM (inactive) | > 100 µM (inactive) | > 100 µM (inactive) | > 100 µM (inactive) | > 100 µM (inactive) | > 100 µM (inactive) | > 100 µM (inactive) | > 100 µM (inactive) | > 100 µM (inactive) | > 100 | > 100 µM (inactive) |  | > 100 µM (inactive) | > 100 µM (inactive) | > 100 µM (inactive) | > 100 µM (inactive) | > 100 µM (inactive) | > 100 µM (inactive) |  |
| CC(=O)Oc1ccc(CO)cc1OC(C)=O | > 100 µM (inactive) | 36.3 µM (inactive) | > 100 µM (inactive) | > 100 µM (inactive) | > 100 µM (inactive) | 24.5 µM (inactive) | 57.8 µM (inactive) | > 100 µM (inactive) | > 100 µM (inactive) | > 100 µM (inactive) | > 100 | > 100 µM (inactive) | > 100 µM (inactive) | > 100 µM (inactive) | > 100 µM (inactive) | > 100 µM (inactive) | 27.6 µM (inactive) |  |  |  |
